From patent US10004222B2, “Small molecule ice recrystallization inhibitors and methods of use thereof” (THE UNIVERSITY OF OTTAWA, priority 2012, dated 2018)
Like-named read-outs stand apart in the source and are kept apart here. Non-standard residues stand in square brackets, D forms with d. Residues, ends and D or L forms follow the SMILES beside them. *: point of attachment. X1 = O=C(C[C@H]1OC(CO)[C@H](O)[C@H](O)C1O)*; Orn = NCCC[C@H](N)C(=O)O

Tests used:
[1] = previously demonstrated; cited from earlier work
[2] = previously demonstrated; cited from earlier work; remark: listed apart in the source
[3] = test system: human embryonic liver cells; conditions: compared with DMSO; cited from earlier work
[4] = splat cooling ice recrystallization inhibition (IRI) assay; conditions: 0.5 mM
Experimental: In this assay, the area of ice crystals are measured after a 30 minute annealing time at −6.4° C. and compared to a positive control for ice recrystallization resulting in a quantitative measurement of the mean ice grain size. For a positive control, a phosphate buffered saline (PBS) solution was utilized. All samples were normalized to the PBS positive control. The ice recrystallization inhibition activity of the carbohydrate-based non-ionic surfactants n-octyl-β-D-glucopyranoside (compound 3) and n-octyl-β-D-galactopyranoside (compound 4) is shown in FIG. 1.
In this assay, the area of ice crystals are measured after a 30 minute annealing time at −6.4° C. and compared to a positive control for ice recrystallization resulting in a quantitative measurement of the mean ice grain size. For a positive control, a PBS solution was utilized. All samples were normalized to the PBS positive control.
N-aryl-D-gluconamides (3a), (2a), (4a), and (1b) are a class of low molecular weight carbohydrate-based compounds. The ice recrystallization inhibition activity of (3a), (2a), (4a), and (1b) was assessed using a “splat cooling” assay. In this assay, the area of ice crystals are measured after a 30 minutes annealing time at −6.4° C. and compared to a positive control for ice recrystallization resulting in a quantitative measurement of the mean ice grain size. For a positive control, PBS was utilized. All samples were normalized to the PBS positive control.

[5] = thermal hysteresis (TH) activity and dynamic ice shaping, Clifton Nanoliter Osmometer; conditions: 0.01 mg/mL
Experimental: As both compound 4 (at 22 mM) and compound 5 (at 0.5 mM) are novel potent low molecular weight inhibitors of ice recrystallization, whether they were interacting directly with the ice lattice was investigated. Carbohydrate derivatives (compounds 3-6) were examined for TH activity using a Clifton Nanoliter Osmometer. See Tam, R. et al. (2009) “Solution Conformation of C-Linked Antifreeze Glycoprotein Analogues and Modulation of Ice Recrystallization” J. Am. Chem. Soc. 131:15747-15753; Tam, R. et al. (2008) “Hydration Index—A Better Parameter for Explaining Small Molecule Hydration in Inhibition of Ice Recrystallization” J. Am. Chem. Soc. 130: 17494-17501.
In this assay a single droplet of the sample in water was suspended in the center of an oil-filled well in a sample holder plate. The sample was then rapidly frozen using a thermoelectrically controlled microscope stage, then the temperature was raised and the sample melted until only a single ice crystal remained. Once a single ice crystal was obtained, its growth and behavior upon increasing/decreasing the temperature was viewed under a microscope.
The above synthesized C-linked AFGP analogues and carbohydrate derivatives were assessed for TH activity at 10 mg/mL. Compounds 3-6 could not be assessed for TH activity at this concentration due to their amphiphilic nature. […]

[6] = solubility and gelation in water, PBS; type: physicochemical

Row | Structure (SMILES) | ice recrystallization inhibition activity [1] | TH activity [2] | cryoprotective ability [3] | ice recrystallization inhibition activity [4] | dynamic ice shaping [5] | solubility [6]
1 | N[C@@H](CCCNC(=O)C[C@H]1OC(CO)[C@H](O)[C@H](O)C1O)C(=O)NCC(=O)NCC(=O)N[C@@H](CCCNC(=O)C[C@H]1OC(CO)[C@H](O)[C@H](O)C1O)C(=O)NCC(=O)NCC(=O)N[C@@H](CCCNC(=O)C[C@H]1OC(CO)[C@H](O)[C@H](O)C1O)C(=O)NCC(=O)NCC(=O)N[C@@H](CCCNC(=O)C[C@H]1OC(CO)[C@H](O)[C@H](O)C1O)C(=O)NCC(=O)NCC(=O)NCC(=O)O (some centres unmarked) [analog 1] (H-[Orn](X1)GG[Orn](X1)GG[Orn](X1)GG[Orn](X1)GGG-OH) | potent inhibitors of ice recrystallization | do not exhibit TH activity | as effective as a 2.5% solution of DMSO | – | – | –
2 | N[C@@H](CC[C@H]1OC(CO)[C@H](O)[C@H](O)C1O)C(=O)NCC(=O)NCC(=O)N[C@@H](CC[C@H]1OC(CO)[C@H](O)[C@H](O)C1O)C(=O)NCC(=O)NCC(=O)N[C@@H](CC[C@H]1OC(CO)[C@H](O)[C@H](O)C1O)C(=O)NCC(=O)NCC(=O)N[C@@H](CC[C@H]1OC(CO)[C@H](O)[C@H](O)C1O)C(=O)NCC(=O)NCC(=O)NCC(=O)O (some centres unmarked) [analog 2] | potent inhibitors of ice recrystallization | do not exhibit TH activity | – | – | – | –
3 | CCCCCCCCNC(=O)[C@H](O)[C@@H](O)[C@H](O)[C@H](O)CO [compound 5, N-octyl-D-gluconamide] | – | – | – | potent | do not exhibit this activity | poor solubilities
4 | CCCCCCCCNC(=O)[C@H](O)[C@@H](O)[C@@H](O)[C@H](O)CO [compound 6, N-octyl-D-galactonamide] | – | – | – | only moderate | do not exhibit this activity | poor solubilities
